Data from US20180244611A1, “Modulators of the Cystic Fibrosis Transmembrane Conductance Regulator Protein and Methods of Use” (AbbVie S.à.r.l., priority 2017, published 2018).
pEC50: −log10 of the molar value.

Experiments:
F508delCFTR [1] = biological target: T1, F508delCFTR (Homo sapiens, UniProt P13569, DEL508-508); assay: Cell Surface Expression-Horse Radish Peroxidase (CSE-HRP) assay, test compound with co-corrector; format: cell-based; settings: for Maximum % activity (with co-corrector): maximum at any tested concentration;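 on Maximum % activity (with co-corrector): percent of 2 µM positive control corrector over DMSO; co-corrector is that same compound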
T1 construct: expressed in transfected cells; host or cells: CFBE41o- human lung-derived epithelial cells (CFBE41o-F508delCFTR-HRP), doxycycline-inducible
T1 sequence (P13569 with tags, fused parts or gaps DEL508-508): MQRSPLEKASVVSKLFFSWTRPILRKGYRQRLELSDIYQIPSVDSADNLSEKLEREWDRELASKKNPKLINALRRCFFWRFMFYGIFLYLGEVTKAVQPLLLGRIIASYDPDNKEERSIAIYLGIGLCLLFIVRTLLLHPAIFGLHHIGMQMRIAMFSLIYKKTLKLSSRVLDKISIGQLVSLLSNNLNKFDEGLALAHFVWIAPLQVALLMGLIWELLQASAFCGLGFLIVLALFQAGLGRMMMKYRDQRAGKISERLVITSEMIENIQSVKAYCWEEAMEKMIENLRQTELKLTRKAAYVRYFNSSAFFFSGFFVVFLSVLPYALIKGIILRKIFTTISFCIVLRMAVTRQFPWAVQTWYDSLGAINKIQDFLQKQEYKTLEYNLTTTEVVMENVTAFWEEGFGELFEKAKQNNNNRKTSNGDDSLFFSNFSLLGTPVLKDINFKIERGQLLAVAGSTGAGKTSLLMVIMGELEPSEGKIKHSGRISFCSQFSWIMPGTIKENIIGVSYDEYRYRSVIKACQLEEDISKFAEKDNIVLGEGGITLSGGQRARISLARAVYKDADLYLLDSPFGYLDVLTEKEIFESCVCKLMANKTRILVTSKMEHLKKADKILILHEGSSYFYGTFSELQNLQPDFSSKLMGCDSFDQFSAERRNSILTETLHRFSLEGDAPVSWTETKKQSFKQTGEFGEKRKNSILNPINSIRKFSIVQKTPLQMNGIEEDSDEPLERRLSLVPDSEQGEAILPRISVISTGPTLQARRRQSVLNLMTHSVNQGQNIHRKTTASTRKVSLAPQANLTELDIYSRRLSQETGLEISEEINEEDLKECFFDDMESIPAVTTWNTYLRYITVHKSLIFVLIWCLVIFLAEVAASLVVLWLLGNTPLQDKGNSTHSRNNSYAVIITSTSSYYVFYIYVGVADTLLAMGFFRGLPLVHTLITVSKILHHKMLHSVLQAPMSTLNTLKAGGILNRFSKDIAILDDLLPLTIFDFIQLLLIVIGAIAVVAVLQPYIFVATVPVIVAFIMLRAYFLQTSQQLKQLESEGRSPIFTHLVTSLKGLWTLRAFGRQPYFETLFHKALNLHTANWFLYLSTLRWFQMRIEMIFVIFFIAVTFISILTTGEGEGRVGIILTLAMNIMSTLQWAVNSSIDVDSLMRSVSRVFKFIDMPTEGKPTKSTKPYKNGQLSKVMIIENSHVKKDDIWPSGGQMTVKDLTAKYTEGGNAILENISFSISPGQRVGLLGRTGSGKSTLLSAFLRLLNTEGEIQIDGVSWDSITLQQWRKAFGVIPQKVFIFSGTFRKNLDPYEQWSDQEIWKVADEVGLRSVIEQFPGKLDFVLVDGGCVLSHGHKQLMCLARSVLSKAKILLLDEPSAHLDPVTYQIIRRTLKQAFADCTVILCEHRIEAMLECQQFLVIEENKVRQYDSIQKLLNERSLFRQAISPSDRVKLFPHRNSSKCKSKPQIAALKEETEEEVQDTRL
How it was run: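 CFBE41o- cells expressing F508delCFTR with HRP in the fourth exofacial loop, induced with 0.5 μg/mL doxycycline for 72 h, then treated 18-24 h at 33° C. with compound (8 points, top 20 μM, 3-fold) plus 2 μM co-corrector. Surface HRP read by luminol luminescence; activity normalised to positive control, EC50 from variable-slope sigmoidal fit.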

F508delCFTR [2] = biological target: T1, F508delCFTR; assay: Cell Surface Expression-Horse Radish Peroxidase (CSE-HRP) assay, test compound without co-corrector; format: cell-based; settings: for Emax: maximum at any tested concentration, without co-corrector; for pEC50: test compound without co-corrector;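 on Emax: percent of on-plate 2 µM positive control corrector response over DMSO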
How it was run: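 CFBE41o- cells expressing F508delCFTR with HRP in the fourth exofacial loop, induced with 0.5 μg/mL doxycycline for 72 h at 37° C, then exposed to compound alone for 18-24 h at 33° C, 8-point 3-fold series from 20 μM. Surface HRP read by luminol luminescence, normalized to positive corrector control versus DMSO; EC50 from variable-slope sigmoidal fit of three replicate plates.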

[3] = normalized to positive control, with 2 μM co-corrector
[4] = CSE-HRP assay, test compound with 2 μM co-corrector
[5] = normalized to on-plate positive control, with 2 μM co-corrector
[6] = normalized to on-plate positive control

Row | Structure (SMILES) | Maximum % activity (with co-corrector) (F508delCFTR [1]; [3]) | pEC50 (F508delCFTR [1]; with 2 μM co-corrector) | Emax (F508delCFTR [2]; normalized to positive control) [%] | pEC50 (F508delCFTR [2]) | pEC50 (F508delCFTR [1]; [4]) | Maximum % activity (with co-corrector) (F508delCFTR [1]; [5]) | pEC50 (F508delCFTR [2]; CSE-HRP assay) | Emax (F508delCFTR [2]; [6]) [%]
1 | COc1cccc2c1[C@@H](C(=O)NS(=O)(=O)c1cccc3ncccc13)CC2(C)C [Example I-153, (1S)-7-methoxy-3,3-dimethyl-N-(quinoline-5-sulfonyl)-2,3-dihydro-1H-indene-1-carboxamide] | +++ (≥350) | > 5.52 | ≥ 150 | 5.00 to 5.52 |  |  |  | 
2 | COc1cccc2c1[C@H](C(=O)NS(=O)(=O)c1cccc3ncccc13)CC2(C)C [Example I-154, (1R)-7-methoxy-3,3-dimethyl-N-(quinoline-5-sulfonyl)-2,3-dihydro-1H-indene-1-carboxamide] | +++ (≥350) | > 5.52 | ≥ 150 | 5.00 to 5.52 |  |  |  | 
3 | COc1ccc(C2CCC2)c2c1[C@H](C(=O)NS(=O)(=O)c1cccc3ncc(C)n13)C2 [Example I-155, (7R)-2-cyclobutyl-5-methoxy-N-(3-methylimidazo[1,2-a]pyridine-5-sulfonyl)bicyclo[4.2.0]octa-1,3,5-triene-7-carboxamide] | +++ (≥350) | > 5.52 | ≥ 150 | 5.00 to 5.52 |  |  |  | 
4 | Cc1ccccc1S(=O)(=O)NC(=O)C1CCc2c(Cl)cccc21 (centres unmarked) [Example II-3, 4-chloro-N-(2-methylbenzene-1-sulfonyl)-2,3-dihydro-1H-indene-1-carboxamide] | +++ (≥350) | 5.00 to 5.52 | 50 to 150 | 5.00 to 5.52 |  |  |  | 
5 | Cc1ccccc1S(=O)(=O)NC(=O)C1CCc2c(-c3ccccc3)cccc21 (centres unmarked) [Example II-36, N-(2-methylbenzene-1-sulfonyl)-4-phenyl-2,3-dihydro-1H-indene-1-carboxamide] | +++ (≥350) | 5.00 to 5.52 | 50 to 150 | 5.00 to 5.52 |  |  |  | 
6 | O=C(NS(=O)(=O)c1cccc2ccccc12)C1(CN2CCCC2)CCc2c(Cl)cccc21 (centres unmarked) [Example II-47, 4-chloro-N-(naphthalene-1-sulfonyl)-1-[(pyrrolidin-1-yl)methyl]-2,3-dihydro-1H-indene-1-carboxamide] | ++ (≥150 and <350) | 5.00 to 5.52 | < 50 | 5.00 to 5.52 |  |  |  | 
7 | CCC1(C(=O)NS(=O)(=O)N2CCCc3ccccc32)CCc2c(Cl)cccc21 (centres unmarked) [Example II-80, 4-chloro-N-(3,4-dihydroquinoline-1(2H)-sulfonyl)-1-ethyl-2,3-dihydro-1H-indene-1-carboxamide] | + (<150) | ≤ 5.00 | < 50 | ≤ 5.00 |  |  |  | 
8 | O=C(NS(=O)(=O)c1cccc2ccccc12)C1(CO)CCc2c(Cl)cccc21 (centres unmarked) [Example II-81, 4-chloro-1-(hydroxymethyl)-N-(naphthalene-1-sulfonyl)-2,3-dihydro-1H-indene-1-carboxamide] | +++ (≥350) | > 5.52 | 50 to 150 | 5.00 to 5.52 |  |  |  | 
9 | COc1cccc2c1C(C(=O)NS(=O)(=O)c1cccc3ccccc13)CCC2 (centres unmarked) [Example II-115, 8-methoxy-N-(naphthalene-1-sulfonyl)-1,2,3,4-tetrahydronaphthalene-1-carboxamide] | +++ (≥350) | > 5.52 | ≥ 150 | 5.00 to 5.52 |  |  |  | 
10 | O=C(NS(=O)(=O)c1cccc2ccccc12)C1CCCc2c(Cl)ccc(O)c21 (centres unmarked) [Example II-128, 5-chloro-8-hydroxy-N-(naphthalene-1-sulfonyl)-1,2,3,4-tetrahydronaphthalene-1-carboxamide] | +++ (≥350) | 5.00 to 5.52 | 50 to 150 | 5.00 to 5.52 |  |  |  | 
11 | O=C(NS(=O)(=O)c1cccc2ccccc12)C1(CCN2CCCC2)CCc2c(Cl)cccc21 (centres unmarked) [Example III-111, 4-chloro-N-(naphthalene-1-sulfonyl)-1-[2-(pyrrolidin-1-yl)ethyl]-2,3-dihydro-1H-indene-1-carboxamide] |  |  |  |  | 5.00 to 5.52 | + (<150) | ≤ 5.00 | < 50
12 | COCCN(C)CCC1(C(=O)NS(=O)(=O)c2cccc3ccccc23)CCc2c(Cl)cccc21 (centres unmarked) [Example III-112, 4-chloro-1-{2-[(2-methoxyethyl)(methyl)amino]ethyl}-N-(naphthalene-1-sulfonyl)-2,3-dihydro-1H-indene-1-carboxamide] |  |  |  |  | 5.00 to 5.52 | ++ (≥150 and <350) | 5.00 to 5.52 | < 50
13 | CCC1(C(=O)N(C)S(=O)(=O)c2cccc3ccccc23)CCc2c(Cl)cccc21 (centres unmarked) [Example III-150, 4-chloro-1-ethyl-N-methyl-N-(naphthalene-1-sulfonyl)-2,3-dihydro-1H-indene-1-carboxamide] |  |  |  |  | ≤ 5.00 | + (<150) | ≤ 5.00 | < 50
14 | COCC1(C(=O)NS(=O)(=O)c2cccc3ccccc23)CCc2c(Cl)cccc21 (centres unmarked) [Example III-151, 4-chloro-1-(methoxymethyl)-N-(naphthalene-1-sulfonyl)-2,3-dihydro-1H-indene-1-carboxamide] |  |  |  |  | ≤ 5.00 | + (<150) | ≤ 5.00 | < 50
15 | N#CCC1(C(=O)NS(=O)(=O)c2cccc3ccccc23)CCc2c(Cl)cccc21 (centres unmarked) [Example III-155, 4-chloro-1-(cyanomethyl)-N-(naphthalene-1-sulfonyl)-2,3-dihydro-1H-indene-1-carboxamide] |  |  |  |  | 5.00 to 5.52 | ++ (≥150 and <350) | 5.00 to 5.52 | < 50
16 | N#CC1(C(=O)NS(=O)(=O)c2cccc3ccccc23)CCCc2cccc(Cl)c21 (centres unmarked) [Example III-157, 8-chloro-1-cyano-N-(naphthalene-1-sulfonyl)-1,2,3,4-tetrahydronaphthalene-1-carboxamide] |  |  |  |  | 5.00 to 5.52 | ++ (≥150 and <350) | ≤ 5.00 | < 50
17 | CC1(C(=O)NS(=O)(=O)c2ccccc2)CCc2c(Cl)cccc21 (centres unmarked) [II-1] | +++ (≥350) | 5.00 to 5.52 | 50 to 150 | 5.00 to 5.52 |  |  |  | 
18 | Cc1ccccc1S(=O)(=O)NC(=O)[C@@]1(C)CCc2ccc(Cl)cc21 [II-4] | ++ (≥150 and <350) | 5.00 to 5.52 | < 50 | 5.00 to 5.52 |  |  |  | 
19 | Cc1ccccc1S(=O)(=O)NC(=O)[C@]1(C)CCc2ccc(Cl)cc21 [II-5] | ++ (≥150 and <350) | > 5.52 | < 50 | 5.00 to 5.52 |  |  |  | 
20 | O=C(NS(=O)(=O)c1ccccc1Cl)C1CCc2c(Cl)cccc21 (centres unmarked) [II-6] | ++ (≥150 and <350) | 5.00 to 5.52 | 50 to 150 | 5.00 to 5.52 |  |  |  | 
21 | Cc1ccccc1S(=O)(=O)NC(=O)C1CCCc2ccccc21 (centres unmarked) [II-7] | ++ (≥150 and <350) | 5.00 to 5.52 | < 50 | 5.00 to 5.52 |  |  |  | 
22 | COc1cccc2c1CCCC2C(=O)NS(=O)(=O)c1ccccc1C (centres unmarked) [II-8] | ++ (≥150 and <350) | 5.00 to 5.52 | 50 to 150 | 5.00 to 5.52 |  |  |  | 
23 | COc1ccc2c(c1OC)CCCC2C(=O)NS(=O)(=O)c1ccccc1C (centres unmarked) [II-9] | ++ (≥150 and <350) | 5.00 to 5.52 | < 50 | ≤ 5.00 |  |  |  | 
